Here are results for 66 compounds from PubChem BioAssay AID720588 (Broad Institute, 2013).

Calls of active or inactive are those of the source.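 How the source made its calls: active means fitted curve falls past a set limit of signal loss at no more than twice the top dose; inconclusive means flat fit between 30 and 70% signal loss, or poor fit; inactive means signal rise, flat within 30%, or crossing too high.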

A short description of this assay: ATP-based viability loss in HEK293T cells – cell-based, CellTiter-Glo luminescence, cherry-pick, set 3, cytotoxicity control, dose response (AID 720588). Conditions: HEK293T viability, CellTiter-Glo ATP luminescence, 72 h.

With `O=C(CCCN1C(=O)/C(=C/c2ccccc2Cl)SC1=S)NNC(=O)c1ccc(Cl)cc1`, the activity change, negative = cytotoxicity (at 26 µM (top of the series)) was 24.3% (inactive).
Still for that read-out and setting: next, `COc1ccc(/C=C/C(=O)c2cc(F)ccc2OC(=O)c2ccccc2OC)cc1OC`: -12.6% (inactive).
As for `C[C@@H]1CCCCO[C@H](CN(C)Cc2ccc(C(=O)Nc3ccccc3N)cc2)[C@@H](C)CN([C@@H](C)CO)C(=O)c2cc(NS(=O)(=O)c3ccc(Cl)cc3)ccc2O1`, where the note is “at 26 µM (top of the series)”, the activity change, negative = cytotoxicity was -25.9% (inactive).
Turning to `CCc1ccc2oc(C(=O)N3CCN(c4ccccc4OC)CC3)cc(=O)c2c1`, the activity change, negative = cytotoxicity (at 26 µM (top of the series)) is -13.2% (inactive).
`O=C(N/N=C/c1cnc(N2CCCCC2)s1)c1ccc(C(F)(F)F)cc1`: the activity change, negative = cytotoxicity (at 26 µM (top of the series)) was -9.42% (inactive).
On the same count and under the same terms, as for `CO[C@H]1CN(C)C(=O)c2cc(NC(=O)NC(C)C)ccc2OC[C@H](C)N(Cc2ccc(-c3ccccn3)cc2)C[C@@H]1C`, the figure is -13.6% (inactive); as for `O=C(NCCc1ccccc1)c1ccccc1NC(=O)C1CCCO1` (stereo unspecified), 5.83% (inactive); as for `C[C@@H]1CN([C@@H](C)CO)C(=O)Cc2cc(NC(=O)C3CCCCC3)ccc2O[C@H]1CN(C)Cc1ccc(C(=O)Nc2ccccc2N)cc1`, 7.97% (inactive).
The same measure, in the same setting: as for `C[C@H]1CN([C@@H](C)CO)C(=O)Cc2cc(NC(=O)CCCCCC(=O)Nc3ccccc3N)ccc2O[C@H]1CN(C)Cc1ccc(C(F)(F)F)cc1`, the figure is -19% (inactive); as for `CCOc1ccc(N=C2C(=O)Nc3ccc(C)c(Br)c32)cc1`, -10.6% (inactive); as for `CCOc1cc2[nH]c(=S)n(Cc3ccc(C(=O)NCCN(CC)CC)cc3)c(=O)c2cc1OCC`, -4.81% (inactive).
The same measure, in the same setting: next, `CN(C)c1ncnc2c1ccn2C1OC(CO)C(O)C1O` (stereo unspecified): -37% (inactive).
`O=C1NC2C(=CC(O)C(O)C2O)c2cc3c(cc21)OCO3` (stereo unspecified): the activity change, negative = cytotoxicity (at 26 µM (top of the series)) was -41.4% (inactive).
On to `C[C@H](CO)N1C[C@H](C)[C@H](CN(C)Cc2ccc(C(F)(F)F)cc2)Oc2c(NS(=O)(=O)c3ccc(Cl)cc3)cccc2C1=O`, for which the activity change, negative = cytotoxicity (at 26 µM (top of the series)) is -9.18% (inactive).
On the same count and under the same terms, as for `CN(C)C(=O)c1ccc(-c2ccccc2[C@@H]2[C@@H](CO)N(C(=O)C3CC3)[C@H]2C#N)cc1`, the figure is 13.4% (inactive).
Turning to `C[C@@H]1CN([C@H](C)CO)S(=O)(=O)c2ccc(C#Cc3ccncc3)cc2O[C@@H]1CN(C)C(=O)Nc1ccc2c(c1)OCO2`, the activity change, negative = cytotoxicity (at 26 µM (top of the series)) is -4.95% (inactive).
On the same count and under the same terms, next, `COc1cc(/C=N\Nc2nc(-c3ccc(C)cc3)c(NC(C)=O)s2)ccc1O`: -4.57% (inactive); `O=C1c2ccc3c4c(ccc(c24)C(=O)N1c1cccc(O)c1)C(=O)N(c1cccc(O)c1)C3=O`: 7.85% (inactive).
On the same count and under the same terms, next, `C[C@H](CO)N1C[C@H](C)[C@H](CN(C)CC2CCCCC2)Oc2ccc(NC(=O)Nc3cccc4ccccc34)cc2C1=O`: -16.8% (inactive); `O=C(O)CN1C(=O)/C(=C\c2ccccc2OCc2ccc(Cl)cc2Cl)SC1=S`: 4.7% (inactive); `COc1ccc(CNc2ncc(-c3ccc(F)cc3)n2C)c2ccccc12`: -13.3% (inactive).
On to `COc1ccc(C(=O)OCC(=O)Nc2ccc(Cl)c(C(F)(F)F)c2)c(OC)c1OC`, for which, where the note is “at 26 µM (top of the series)”, the activity change, negative = cytotoxicity is 6.28% (inactive).
On the same count and under the same terms, next, `COc1cccc(OC)c1C(=O)Nc1cc(C)nn1-c1nc2ccccc2[nH]1`: -11.9% (inactive); `O=C1Nc2ccccc2C1=Nc1ccccc1-c1ccccc1`: -21.1% (inactive).
On the same count and under the same terms, as for `Cc1ccccc1NC(=O)C(=Cc1ccc(C(=O)O)cc1)C(=O)Nc1ccccc1C`, the figure is -47.2% (inactive).
Still for that read-out and setting: next, `CN(C(=O)COC(=O)c1cc(-c2ccccc2Cl)nc2ccccc12)C1CCS(=O)(=O)C1` (stereo unspecified): -26.1% (inactive); `CC(=O)ON=C1C=CC(=C(C#N)c2ccccc2)C=C1`: -28.3% (inactive).
`CN(C)c1ccc(/C=N/Nc2nc3ccccc3o2)cc1`: under “at 26 µM (top of the series)”, the activity change, negative = cytotoxicity was -21.5% (inactive).
As for `C[C@H](CO)N1C[C@H](C)[C@H](CN(C)CC2CCCCC2)Oc2ccc(NC(=O)CCCCCC(=O)Nc3ccccc3N)cc2CC1=O`, the activity change, negative = cytotoxicity (at 21 µM (top of the series)) is 5.04% (inactive).
With `CCc1c(C(=O)NN2C(=O)C3CCCCC3C2=O)csc1C` (stereo unspecified), the activity change, negative = cytotoxicity (at 26 µM (top of the series)) is -15.1% (inactive).
Same read-out and setting: next, `C[C@@H]1CN([C@H](C)CO)S(=O)(=O)c2ccc(C#CC3CC3)cc2O[C@@H]1CN(C)Cc1ccccc1F`: -30.1% (inactive).
Still for that read-out and setting: next, `COc1ccc(OC)c(-c2cc(C(F)(F)F)c3c(n2)sc2c(O)cc(=O)[nH]c23)c1`: 2.36% (inactive).
The same measure, in the same setting: as for `C[C@H]1CN([C@@H](C)CO)C(=O)Cc2cc(NC(=O)CCCCCC(=O)Nc3ccccc3N)ccc2O[C@H]1CN(C)Cc1ccc(Oc2ccccc2)cc1`, the figure is -3.08% (inactive); as for `COC(=O)C[C@H]1CC[C@H]2[C@@H](COc3ccc(NC(=O)Nc4cccc(Cl)c4)cc3C(=O)N2C)O1`, -24.3% (inactive); as for `N#Cc1cccc(-c2ccc(C3[C@@H]4CN(C(=O)Cc5ccncc5)C[C@H]3N4)cc2)c1` (stereo partly specified), 35.3% (inactive).
In the case of `C[C@H]1CN([C@@H](C)CO)C(=O)Cc2cc(NC(=O)CCC(F)(F)F)ccc2O[C@H]1CN(C)Cc1ccc(C(=O)Nc2ccccc2N)cc1`, the activity change, negative = cytotoxicity (at 21 µM (top of the series)) is -31.3% (inactive).
Still for that read-out and setting: next, `COc1ccc(S(=O)(=O)Nc2cccc3c2O[C@H](CN(C)Cc2ccc(C(=O)Nc4ccccc4N)cc2)[C@H](C)CN([C@@H](C)CO)C3=O)cc1`: -18.8% (inactive).
Take `COc1cc(OC)cc(-c2cc3nc(C)c(CCC(=O)NCc4ccccc4)c(C)n3n2)c1`: the activity change, negative = cytotoxicity (at 26 µM (top of the series)) was -4.7% (inactive).
Still for that read-out and setting: as for `Cc1ccc(NC(=O)COC(=O)c2ccc3c(c2)OCO3)cc1S(=O)(=O)N1CCCCC1`, the figure is -15.5% (inactive); as for `Cc1cc(C)cc(C(=O)NC(=S)Nc2ccc(Cc3ccncc3)cc2)c1`, -25.9% (inactive).
Still for that read-out and setting: as for `N#C[C@H]1[C@H](c2ccc(C#Cc3ccccc3F)cc2)[C@@H](CO)N1C(=O)C1CCOCC1`, the figure is -4.64% (inactive); as for `COC(=O)c1cccc(NC(=O)NC(=O)c2ccc(Cl)cc2)c1`, -17% (inactive).
With `C[C@H](CO)N1C[C@H](C)[C@H](CN(C)Cc2ccccc2)Oc2ccc(NC(=O)CCCCCC(=O)Nc3ccccc3N)cc2CC1=O`, for the setting “at 23.5 µM (top of the series)”, the activity change, negative = cytotoxicity was -0.084% (inactive).
Regarding `N#CC1=C(N)Oc2cc(N)ccc2C1c1cccc(Br)c1` (stereo unspecified), the activity change, negative = cytotoxicity (at 26 µM (top of the series)) was -22.2% (inactive).
Same read-out and setting: as for `O=c1c2ccccc2oc2cc(C#CC3(O)CCCCC3)ccc12`, the figure is 15.7% (inactive); as for `CCNC(=O)c1cc2c(c(-c3cccc(-c4cccc(OC)c4)c3)n1)[C@H](CCO)N([S@@](=O)C(C)(C)C)C2`, -17.3% (inactive).
As for `C[C@@H]1CCCCO[C@@H](CN(C)C(=O)Cc2ccccc2)[C@@H](C)CN([C@@H](C)CO)C(=O)c2cc(NS(=O)(=O)c3ccc(F)cc3)ccc2O1`, the activity change, negative = cytotoxicity (at 26 µM (top of the series)) was 4.58% (inactive).
Still for that read-out and setting: as for `O=C(c1cccc(S(=O)(=O)NCc2ccccc2)c1)N1CCN(c2ccccc2)CC1`, the figure is -21.2% (inactive); as for `COc1ccc(C2=Nn3c(nnc3-c3ccccc3OC)SC2)cc1OCC1CC1`, -31.8% (inactive).
Take `c1ccc(-c2ccc([C@H]3[C@H]4CNC[C@@H]3N4Cc3cc(-c4ccccc4)on3)cc2)cc1`: the activity change, negative = cytotoxicity (at 26 µM (top of the series)) was 26.6% (inactive).
The same measure, in the same setting: next, `COC(=O)COc1ccc(-c2nccc(-c3ccccn3)n2)cc1`: 19.3% (inactive).
Turning to `O=C(C[C@@H]1C[C@H]2c3cc(NC(=O)CC4CC4)ccc3O[C@H]2[C@H](CO)O1)NCc1ccccc1F`, the activity change, negative = cytotoxicity (at 26 µM (top of the series)) is 13.3% (inactive).
On the same count and under the same terms, as for `Cc1cc(C(=O)CN2C(=O)c3ccccc3S2(=O)=O)c(C)n1C(C)C`, the figure is 15.7% (inactive); as for `CN(C)Cc1c(O)ccc2c1O/C(=C\C=C\c1ccccc1)C2=O`, -32.1% (inactive); as for `COc1ccc(NC(=O)c2cc3ccccc3oc2=O)cc1`, -17.4% (inactive).
Still for that read-out and setting: as for `COc1ccc(NS(=O)(=O)c2cc(NC(=O)CNC(=O)c3cccc(OC)c3)ccc2C)cc1`, the figure is -20.6% (inactive); as for `S=C(NCCN1CCOCC1)Nc1ccccc1Cl`, -17.7% (inactive); as for `COc1cc2c(cc1NC(=O)CN(C)Cc1ccc(OC)c(OC)c1)oc1ccccc12`, -19.9% (inactive).
As to `Cc1c(Cl)cccc1NC(=O)CCC(=O)N/N=C/c1ccc[nH]1`, the activity change, negative = cytotoxicity (at 26 µM (top of the series)) is 12% (inactive).
In the case of `CCn1c(/C=N/NC(=O)c2ccc(OC)cc2)nc2ccccc21`, the activity change, negative = cytotoxicity (at 26 µM (top of the series)) is -10.9% (inactive).
As to `CCOc1ccc(NC(=O)C(=O)N/N=C\c2ccc(CNS(=O)(=O)c3ccccc3)o2)cc1`, the activity change, negative = cytotoxicity (at 26 µM (top of the series)) was -24.2% (inactive).
Still for that read-out and setting: next, `N#CC1C=Cc2c(ccc3ccccc23)N1C(=O)c1ccccc1` (stereo unspecified): -20.1% (inactive).
On the same count and under the same terms, as for `COc1ccc(C/C(N)=N/OC(C)=O)cc1OC`, the figure is -1.12% (inactive).
With `COc1cc2c(cc1OC)C(C)N(C(=O)c1cc(Cl)nc(Cl)c1)CC2` (stereo unspecified), the activity change, negative = cytotoxicity (at 26 µM (top of the series)) is -13.4% (inactive).
With `C[C@@H]1CN([C@@H](C)CO)C(=O)Cc2cc(N(C)C)ccc2O[C@@H]1CN(C)Cc1ccccc1`, where the note is “at 26 µM (top of the series)”, the activity change, negative = cytotoxicity was -17.5% (inactive).
`COC(=O)Cc1[nH]n(-c2nc3ccccc3s2)c(=O)c1C(C)=Nc1ccc(C)cc1`: the activity change, negative = cytotoxicity (at 26 µM (top of the series)) was -30% (inactive).
